Reference: patent US20260125375A1 (Pfizer Inc., priority 2022, published 2026)
Read-outs that look alike come from different tables or passages of the source.

Tests used:
WT CBL-B (36-427) = biological target: T1, WT CBL-B (36-427) (Homo sapiens, UniProt Q13191); assay: Surface Plasmon Resonance (SPR) assay, binding affinity and kinetics, CBL-B; details: SPR at 10° C., biotinylated WT CBL-B (36-427) on streptavidin chip; geometric mean; read-out: CBL-B SPR Kd (nM) GMean
T1 construct: N-terminal biotinylated WT CBL-B (36-427) and C-CBL (46-435) were captured on a streptavidin (SA) coated sensor chip
T1 sequence (Q13191 36-427): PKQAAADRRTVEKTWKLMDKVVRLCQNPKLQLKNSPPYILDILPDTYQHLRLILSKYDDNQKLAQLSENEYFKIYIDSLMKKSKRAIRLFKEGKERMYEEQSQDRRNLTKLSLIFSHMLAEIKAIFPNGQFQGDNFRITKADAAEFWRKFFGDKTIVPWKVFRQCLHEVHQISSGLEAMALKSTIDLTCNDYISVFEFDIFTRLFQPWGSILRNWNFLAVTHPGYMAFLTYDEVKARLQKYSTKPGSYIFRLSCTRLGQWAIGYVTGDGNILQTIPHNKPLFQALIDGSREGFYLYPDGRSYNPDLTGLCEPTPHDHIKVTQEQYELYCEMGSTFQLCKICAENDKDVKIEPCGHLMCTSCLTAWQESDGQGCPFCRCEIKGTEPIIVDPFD
Procedure, shortened: (§1)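 Biotinylated WT CBL-B (36-427) or C-CBL (46-435) captured on streptavidin chip (~5000–6000 RU); binding at 10° C in HEPES buffer pH 7.2 with 2% DMSO. Multi-cycle: 2-fold, 10-point series from 10 or 100 μM, 90 s association. Single-cycle: 3-fold, 6-point, 0.001–1 μM, 120 s association, >5400 s dissociation.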

C-CBL (46-435) = biological target: T2, C-CBL (46-435) (Homo sapiens, UniProt P22681); assay: Surface Plasmon Resonance (SPR) assay, binding affinity and kinetics, C-CBL; details: SPR at 10° C., biotinylated C-CBL (46-435) on streptavidin chip; geometric mean; read-out: C-CBL SPR Kd (nM) GMean
T2 construct: N-terminal biotinylated WT CBL-B (36-427) and C-CBL (46-435) were captured on a streptavidin (SA) coated sensor chip
T2 sequence (P22681 46-435): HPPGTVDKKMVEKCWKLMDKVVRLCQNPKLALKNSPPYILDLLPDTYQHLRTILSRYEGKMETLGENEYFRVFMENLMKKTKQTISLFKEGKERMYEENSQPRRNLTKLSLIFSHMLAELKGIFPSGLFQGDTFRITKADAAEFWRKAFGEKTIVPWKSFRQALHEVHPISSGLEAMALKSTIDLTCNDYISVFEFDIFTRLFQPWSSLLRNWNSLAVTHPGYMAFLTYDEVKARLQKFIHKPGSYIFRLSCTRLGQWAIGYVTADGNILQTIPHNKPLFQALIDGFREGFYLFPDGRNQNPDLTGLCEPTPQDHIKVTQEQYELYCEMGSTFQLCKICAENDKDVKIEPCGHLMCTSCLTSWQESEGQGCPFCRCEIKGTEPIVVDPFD
Procedure, shortened: as §1

CBL-B = biological target: T3, CBL-B (Homo sapiens, UniProt Q13191); assay: Jurkat HiBit-IL2 assay (c-CBL KO), reporter cell line expressing CBL-B only; assay type: cell-based; details: geometric mean, read-out: C-CBL KO EC50 (nM) GMean
T3 construct: endogenous in cells; host or cells: Jurkat HiBit-IL2 reporter cells, C-CBL knocked out by CRISPR
T3 sequence (Q13191 whole entry): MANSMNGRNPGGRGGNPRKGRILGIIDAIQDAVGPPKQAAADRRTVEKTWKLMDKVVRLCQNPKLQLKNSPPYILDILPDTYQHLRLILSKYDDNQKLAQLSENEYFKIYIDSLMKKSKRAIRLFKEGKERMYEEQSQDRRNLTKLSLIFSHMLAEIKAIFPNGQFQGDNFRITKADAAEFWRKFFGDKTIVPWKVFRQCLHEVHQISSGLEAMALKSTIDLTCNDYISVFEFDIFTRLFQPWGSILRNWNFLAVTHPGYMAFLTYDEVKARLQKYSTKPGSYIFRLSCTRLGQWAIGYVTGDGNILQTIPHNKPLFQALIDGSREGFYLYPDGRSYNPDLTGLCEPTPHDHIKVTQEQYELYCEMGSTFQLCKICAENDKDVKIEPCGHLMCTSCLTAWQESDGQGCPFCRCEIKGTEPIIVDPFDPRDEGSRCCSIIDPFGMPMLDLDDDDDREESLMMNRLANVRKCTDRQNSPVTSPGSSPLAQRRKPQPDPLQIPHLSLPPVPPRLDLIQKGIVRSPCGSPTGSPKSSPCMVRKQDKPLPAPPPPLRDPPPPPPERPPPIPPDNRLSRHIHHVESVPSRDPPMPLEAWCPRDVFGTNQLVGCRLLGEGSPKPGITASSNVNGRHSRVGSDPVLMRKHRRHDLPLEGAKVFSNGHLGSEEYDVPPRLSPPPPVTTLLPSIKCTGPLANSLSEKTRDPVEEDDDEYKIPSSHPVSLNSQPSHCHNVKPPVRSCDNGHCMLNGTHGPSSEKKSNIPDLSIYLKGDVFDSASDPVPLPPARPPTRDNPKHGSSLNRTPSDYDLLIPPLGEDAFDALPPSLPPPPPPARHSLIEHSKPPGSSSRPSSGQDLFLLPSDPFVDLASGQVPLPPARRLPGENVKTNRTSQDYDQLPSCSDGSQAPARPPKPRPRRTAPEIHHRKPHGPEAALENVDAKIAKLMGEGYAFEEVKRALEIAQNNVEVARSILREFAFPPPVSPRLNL
Procedure, shortened: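 CRISPR knockout Jurkat HiBit-IL2 reporter cells (20,000/well) were preincubated 1 h with compounds (0.1% DMSO), then stimulated 4 h at 37 °C with anti-CD3 (1 μg/ml) and anti-CD28 (2 μg/ml) final. IL-2 was read by HiBiT lytic luminescence, normalized as fold over antibody-only baseline; EC50 reported as geometric mean.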

[1] = c-CBL KO (CBL-B only), anti-CD3/anti-CD28 stimulation 4 hours, Table 16a
[2] = C-CBL KO (expressing CBL-B only), Table 16b (further repetition)

| SMILES | Kd (WT CBL-B (36-427)) [nM] | Kd (C-CBL (46-435)) [nM] | EC50 (CBL-B; [1]) [nM] | EC50 (CBL-B; [2]) [nM] |
| --- | --- | --- | --- | --- |
| C[C@@H]1CCCN([C@@H](C)c2nc(C(F)(F)F)cc3c(-c4cccc(C5(Cc6nncn6C)COC5)c4)n[nH]c23)C1 (single isomer, unassigned) [Example D13] | 3.5 | 51.2 | 149 | – |
| C[C@H]1CN(Cc2nc(C(F)(F)F)cc3c(-c4cccc([C@H](c5nncn5C)C5CCC5)c4)n[nH]c23)CCO1 [Example C6, 3-{3-[(R)-cyclobutyl(4-methyl-4H-1,2,4-triazol-3-yl)methyl]phenyl}-7-{[(2S)-2-methylmorpholin-4-yl]methyl}-5-(trifluoromethyl)-1H-pyrazolo[3,4-c]pyridine] | 4.4 | 102 | 115 | – |
| Cn1cnnc1CC1(c2cccc(-c3n[nH]c4c(CN[C@H]5CCC(F)(F)C5)nc(C(F)(F)F)cc34)c2)COC1 [Example C38, (1S)-3,3-difluoro-N-{[3-(3-{3-[(4-methyl-4H-1,2,4-triazol-3-yl)methyl]oxetan-3-yl}phenyl)-5-(trifluoromethyl)-1H-pyrazolo[3,4-c]pyridin-7-yl]methyl}cyclopentan-1-amine] | 7.5 | 70.5 | 71 | – |
| C[C@@H](NC1CCCC1)c1nc(C(F)(F)F)cc2c(-c3cccc([C@H](c4nncn4C)C4CCC4)c3)n[nH]c12 (single isomer, unassigned) [Example C11] | 0.9 | 6.1 | 5 | 6 |
| C[C@H](c1nc(C(F)(F)F)cc2c(-c3cccc(C4(Cc5nncn5C)COC4)c3)n[nH]c12)N1CCC(F)(F)C1 (single isomer, unassigned) [Example D6] | 1.8 | 31 | 64 | – |
| CC(c1nc(C(F)(F)F)cc2c(-c3cccc(C4(Cc5nncn5C)COC4)c3)n[nH]c12)N1CCOCC1 (single isomer, unassigned) [Example C24, 3-(3-{3-[(4-methyl-4H-1,2,4-triazol-3-yl)methyl]oxetan-3-yl}phenyl)-7-[(1ξ)-1-(morpholin-4-yl)ethyl]-5-(trifluoromethyl)-1H-pyrazolo[3,4-c]pyridine] | 16.9 | 146 | 434 | – |
| C[C@H](NC1CC[C@H]1O)c1nc(C(F)(F)F)cc2c(-c3cccc([C@H](c4nncn4C)C4CCC4)c3)n[nH]c12 (single isomer, unassigned) [Example D30] | 1.1 | 5.6 | 3 | 10 |
| CC(c1nc(C(F)(F)F)cc2c(-c3cccc(C4(Cc5nncn5C)COC4)c3)n[nH]c12)N1CCC[C@H](C)C1 (single isomer, unassigned) [Example C20] | 1.2 | 11.3 | 12 | 15 |
| C[C@@H](NC1CCCC1)c1nc(C(F)(F)F)cc2c(-c3cccc(C4(Cc5nncn5C)COC4)c3)n[nH]c12 (single isomer, unassigned) [Example C15] | 5.6 | 33.9 | 43 | – |
| C[C@H]1CN([C@@H](C)c2nc(C(F)(F)F)cc3c(-c4cccc(C5(Cc6nncn6C)COC5)c4)n[nH]c23)CCO1 (single isomer, unassigned) [Example D11] | 4.2 | 47.9 | 143 | – |
| C[C@@H](N[C@H]1CCOC1)c1nc(C(F)(F)F)cc2c(-c3cccc([C@H](c4nncn4C)C4CCC4)c3)n[nH]c12 (single isomer, unassigned) [Example C3] | 5.6 | 80.7 | > 159 | – |
| CCNC(C)c1nc(C(F)(F)F)cc2c(-c3cccc([C@H](c4nncn4C)C4CCC4)c3)n[nH]c12 (single isomer, unassigned) [Example C89] | 4.1 | 125 | – | 85 |
| C[C@@H](N[C@H]1C[C@@H](O)C1)c1nc(C(F)(F)F)cc2c(-c3cccc([C@H](c4nncn4C)C4CCC4)c3)n[nH]c12 (single isomer, unassigned) [Example C37] | 3.3 | 75.5 | 173 | – |
| C[C@@H](c1nc(C(F)(F)F)cc2c(-c3cccc(C4(Cc5nncn5C)COC4)c3)n[nH]c12)N1CC[C@@H](F)C1 (single isomer, unassigned) [Example D9] | 8.3 | 96 | 627 | – |
| C[C@H]1CCCN(Cc2nc(C(F)(F)F)cc3c(-c4cccc([C@H](c5nncn5C)C5CCC5)c4)n[nH]c23)C1 [Example C7, 3-{3-[(R)-cyclobutyl(4-methyl-4H-1,2,4-triazol-3-yl)methyl]phenyl}-7-{[(3S)-3-methylpiperidin-1-yl]methyl}-5-(trifluoromethyl)-1H-pyrazolo[3,4-c]pyridine] | 2.7 | 47.7 | 58 | – |
| C[C@@H](N[C@H]1C[C@H](O)C1)c1nc(C(F)(F)F)cc2c(-c3cccc([C@H](c4nncn4C)C4CCC4)c3)n[nH]c12 (single isomer, unassigned) [Example C92] | 2.7 | 39.5 | – | 113 |
| Cn1cnnc1CC1(c2cccc(-c3n[nH]c4cnc(C(F)(F)F)cc34)c2)COC1 [Example B1, 3-(3-(3-((4-methyl-4H-1,2,4-triazol-3-yl)methyl)oxetan-3-yl)phenyl)-5-(trifluoromethyl)-1H-pyrazolo[3,4-c]pyridine] | 49.5 | 450 | > 8710 | – |
| C[C@@H](N[C@H]1CC[C@@H]1O)c1nc(C(F)(F)F)cc2c(-c3cccc([C@H](c4nncn4C)C4CCC4)c3)n[nH]c12 (single isomer, unassigned) [Example D22] | 1.5 | 9.8 | 5 | 12 |
| C[C@H](N[C@H]1C[C@@H](F)C1)c1nc(C(F)(F)F)cc2c(-c3cccc([C@H](c4nncn4C)C4CCC4)c3)n[nH]c12 (single isomer, unassigned) [Example C95] | 2.3 | 72.5 | – | 53 |
| CC(c1nc(C(F)(F)F)cc2c(-c3cccc(C4(Cc5nncn5C)COC4)c3)n[nH]c12)N1C[C@@H](F)[C@H](F)C1 (single isomer, unassigned) [Example C25] | 1.8 | 31.8 | 49 | – |
| C[C@H](NC1CCC1)c1nc(C(F)(F)F)cc2c(-c3cccc(C4(Cc5nncn5C)COC4)c3)n[nH]c12 [Example F1, N-{(1S)-1-[3-(3-{3-[(4-methyl-4H-1,2,4-triazol-3-yl)methyl]oxetan-3-yl}phenyl)-5-(trifluoromethyl)-1H-pyrazolo[3,4-c]pyridin-7-yl]ethyl}cyclobutanamine] | 0.7 | 11.2 | 8 | 15 |
| C[C@@H](N[C@H]1CCC(F)(F)C1)c1nc(C(F)(F)F)cc2c(-c3cccc([C@H](c4nncn4C)C4CCC4)c3)n[nH]c12 [Example C9] | 3.1 | 22.1 | 32 | 32 |
| Cn1cnnc1[C@@H](c1cccc(-c2n[nH]c3c(CNC4CCCC4)nc(C(F)(F)F)cc23)c1)C1CCC1 [Example D4] | 2.8 | 106 | 72 | – |
| C[C@@H](N[C@@H]1CCC[C@@H]1O)c1nc(C(F)(F)F)cc2c(-c3cccc([C@H](c4nncn4C)C4CCC4)c3)n[nH]c12 (single isomer, unassigned) [Example D16] | 3.6 | 43.1 | 18 | – |
| C[C@@H](N[C@@H]1CCOC1)c1nc(C(F)(F)F)cc2c(-c3cccc([C@H](c4nncn4C)C4CCC4)c3)n[nH]c12 (single isomer, unassigned) [Example D3] | 4 | 124 | 47 | 67 |
| C[C@@H](N[C@H]1C[C@@H](F)C1)c1nc(C(F)(F)F)cc2c(-c3cccc([C@H](c4nncn4C)C4CCC4)c3)n[nH]c12 (single isomer, unassigned) [Example C96] | 3.3 | 91.2 | – | 76 |
| Cn1cnnc1CC1(c2cccc(-c3n[nH]c4ncc(C(F)(F)F)cc34)c2)COC1 [Example B3, 3-(3-{3-[(4-methyl-4H-1,2,4-triazol-3-yl)methyl]oxetan-3-yl}phenyl)-5-(trifluoromethyl)-1H-pyrazolo[3,4-b]pyridine] | 67.9 | 861 | 1710 | – |
